This note sets out measurements from patent publication US20160184459A1, “CANCER CELL SPECIFIC IMAGING PROBES AND METHODS OF USE” (THE RESEARCH FOUNDATION FOR THE STATE UNIVERSITY OF NEW YORK, priority 2013, published 2016).

For the experiment, the system named is CCD841-CoN. Briefly: Cell viability assays, normal colon cells. Format: cell-based, human. Conditions: negative control cells. The protocol:
FIG. 15. Inhibition of cell viability by BKAc-Puro. The cell lines were grown and analyzed as in FIG. 12.
FIG. 18. Selective cytotoxicity by BKAc-Puro on pancreatic cancer cells. Pancreatic cancer (BXPC-3 and Miapaca-2), colon cancer (HCT116 as a positive control sensitive to the drug), and normal colon (CCD841-CoN as a negative control) cells were grown and analyzed as in FIG. 13. BKAc-Puro can effectively cause cell death on pancreatic cancer cells (BXPC-3 and MiaPaca-2) that are known to resistant to conventional chemotherapeutic drugs including 5-FU and Gemicitabine.
FIG. 19. Selective cytotoxicity by BKAc-Puro on prostate cancer cells. Prostate cancer (PC-3, DU-145, and LNCaP), colon cancer (HCT116 as a positive control sensitive to the drug), and normal colon (CCD841-CoN as a negative control) cells were grown and analyzed as in FIG. 13. BKAc-Puro can effectively cause cell death on prostate cancer cells.
Cell number was determined by cell counting using improved Neubauer hemacytometer. Cell viability was calculated as the number of viable cells divided by the total number of cells using Trypan Blue Stain (Invitrogen) to distinguish non-viable cells. Data were obtained from duplicated samples with quadruplicate measurements. […] After additional 2-3 h incubation, the absorbance of the formazan at 490 nm was measured by the microplate reader. […]

As for `COc1ccc(CC(NC(=O)C(CCCCNC(C)=O)NC(=O)OC(C)(C)C)C(=O)NC2C(O)[C@H](n3cnc4c(N(C)C)ncnc43)O[C@@H]2CO)cc1` (stereo partly drawn) [BKAc-Puro, N-[3′-(α-Amino-p-methoxyhydrocinnamamido)-3′-deoxy-N,N-dimethyldenosinyl)-N-α-(t-butoxycarbonyl]-N-ε-acetyl-L-lysineamide], the “Effect on normal colon cells” value is reported as “relatively little effect”.
